Measurements as given in publication PMC6718736, “Validation of in vitro methods for human cytochrome P450 enzyme induction: Outcome of a multi-laboratory study” (Toxicology in Vitro, 2019).
Like-named read-outs stand apart in the source and are kept apart here.

How the values were obtained:
CYP = CYP isoforms induced; ref Abadie et al. (2009), Richert et al. (2010), Preissner et al. (2010), Hoffmann et al. (2014); cited from earlier work
CYP1A2 [1] = assay: CYP1A2 enzyme induction assay in cryopreserved HepaRG cells (phenacetin probe, LC/MS); type: in vitro ADME, human; conditions: for Assigned classification CYP1A2: HepaRG; as to Assigned classification CYP1A2: key: 1=Positive=inducer; 0=Negative=non-inducer
CYP2B6 [2] = assay: CYP2B6 enzyme induction assay in cryopreserved primary human hepatocytes (PHH); type: in vitro ADME; conditions: for Assigned classification CYP2B6: PHH;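 as to Assigned classification CYP2B6: code 1 means positive inducer and 0 means non-inducer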
CYP3A4 [3] = assay: CYP3A4 enzyme induction assay in cryopreserved HepaRG cells (midazolam probe, LC/MS); type: in vitro ADME, human; conditions: for Assigned classification CYP3A4: HepaRG; as to Assigned classification CYP3A4: key: 1=Positive=inducer; 0=Negative=non-inducer
CYP2B6 [4] = assay: CYP2B6 enzyme induction assay in cryopreserved HepaRG cells (bupropion probe, LC/MS); type: in vitro ADME, human; conditions: for Prediction in vivo inducer: Cmax/F2 >0.5 criterion; for Assigned classification CYP2B6: HepaRG; as to Assigned classification CYP2B6: key: 1=Positive=inducer; 0=Negative=non-inducer
CYP1A2 [5] = conditions: cited from earlier work
[6] = cited from earlier work
CYP2B6 [7] = conditions: cited from earlier work
CYP3A4 [8] = conditions: cited from earlier work
[9] = Solubility by nephelometry (EURL ECVAM); type: physicochemical
Description: In addition to the visual inspection performed by the validation laboratories as described in the SOP, EURL ECVAM introduced nephelometry for systematic solubility determination of the 13 validation set chemicals. Nephelometry uses a laser beam and the principle of Tyndall effect light scatter to detect turbidity due to insolubility. The nephelometer method used formazin as reference item (1, 5, 10 and 20 nephelometric turbidity units (NTU)) to calculate the relative turbidity (RTU) of the validation set of chemicals. To the naked eye, 20 NTU is perceptible, while the nephelometer was sensitive to 5 NTU, with 1 NTU equivalent to background (solvent/medium blank).

[10] = Solubility by visual inspection (DMSO stock solution and assay medium); type: physicochemical; conditions: assay medium
Description: The SOPs relied on visual inspection for solubility observation. […] The absence of precipitation in the medium was checked pre- and post-incubation (24 hours) by centrifugation of the sample and observation of any precipitation (pellet residue).

CYP3A4 [11] = assay: CYP3A4 enzyme induction assay in cryopreserved primary human hepatocytes (PHH); conditions: for Assigned classification CYP3A4: PHH
CYP1A2 [12] = assay: CYP1A2 enzyme induction assay in cryopreserved primary human hepatocytes (PHH); type: in vitro ADME; conditions: for Prediction in vivo inducer: Cmax/F2 >0.5 criterion; for Assigned classification CYP1A2: PHH;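 as to Assigned classification CYP1A2: code 1 means positive inducer and 0 means non-inducer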
[13] = human in vivo, CYP named without remark = induced, ref references in the cell, Washington University database, Hoffmann et al. (2014), Pelkonen et al. (2008), Hukkanen et al. (2012)

Prediction in vivo inducer (CYP1A2 [1]; CYP1A2, HepaRG cells, Cmax/F2 >0.5 criterion): Yes
F2 (CYP1A2 [1]; CYP1A2, HepaRG cells, in vitro concentration producing 2-fold induction): 36.5 µM
Induction in vitro (CYP1A2 [1]; CYP1A2, HepaRG cells, positive in one batch in each of the three laboratories): Yes
Assigned classification CYP1A2 (CYP1A2 [1]; Lab 1, batch 20): 1
Assigned classification CYP1A2 (CYP1A2 [1]; Lab 1, batch 35): 1
Assigned classification CYP1A2 (CYP1A2 [1]; Lab 1, batch 36): 1
Assigned classification CYP1A2 (CYP1A2 [1]; Lab 2, batch 20): 1
Assigned classification CYP1A2 (CYP1A2 [1]; Lab 2, batch 35): 1
Assigned classification CYP1A2 (CYP1A2 [1]; Lab 2, batch 36): 1
Assigned classification CYP1A2 (CYP1A2 [1]; Lab 3, batch 20): 1
Assigned classification CYP1A2 (CYP1A2 [1]; Lab 3, batch 35): 0
Assigned classification CYP1A2 (CYP1A2 [1]; Lab 3, batch 36): 1
F2 (CYP2B6 [2]; CYP2B6, PHH): 0.60 to 48.6 µM
Induction in vitro (CYP2B6 [2]; CYP2B6, PHH): Yes
Prediction in vivo inducer (CYP2B6 [2]; CYP2B6, PHH): Yes
Prediction in vivo inducer (CYP2B6 [2]; CYP2B6, PHH, Cmax/F2 >0.5 criterion): positive
Assigned classification CYP2B6 (CYP2B6 [2]; Lab 1, batch 0 6 A): 1
Assigned classification CYP2B6 (CYP2B6 [2]; Lab 1, batch 4 0 8): 1
Assigned classification CYP2B6 (CYP2B6 [2]; Lab 1, batch 8 0 8): 0
Assigned classification CYP2B6 (CYP2B6 [2]; Lab 2, batch 0 6 A): 1
Assigned classification CYP2B6 (CYP2B6 [2]; Lab 2, batch 4 0 8): 1
Assigned classification CYP2B6 (CYP2B6 [2]; Lab 2, batch 8 0 8): 0
Assigned classification CYP2B6 (CYP2B6 [2]; Lab 3, batch 0 6 A): 1
Assigned classification CYP2B6 (CYP2B6 [2]; Lab 3, batch 4 0 8): 1
Assigned classification CYP2B6 (CYP2B6 [2]; Lab 3, batch 8 0 8): 1
F2 (CYP3A4 [3]; CYP3A4, HepaRG cells): 12.2 µM
Induction in vitro (CYP3A4 [3]; CYP3A4, HepaRG cells): Yes
Prediction in vivo inducer (CYP3A4 [3]; CYP3A4, HepaRG cells): Yes
Assigned classification CYP3A4 (CYP3A4 [3]; Lab 1, batch 20): 1
Assigned classification CYP3A4 (CYP3A4 [3]; Lab 1, batch 35): 1
Assigned classification CYP3A4 (CYP3A4 [3]; Lab 1, batch 36): 1
Assigned classification CYP3A4 (CYP3A4 [3]; Lab 2, batch 20): 1
Assigned classification CYP3A4 (CYP3A4 [3]; Lab 2, batch 35): 1
Assigned classification CYP3A4 (CYP3A4 [3]; Lab 2, batch 36): 1
Assigned classification CYP3A4 (CYP3A4 [3]; Lab 3, batch 20): 1
Assigned classification CYP3A4 (CYP3A4 [3]; Lab 3, batch 35): 1
Assigned classification CYP3A4 (CYP3A4 [3]; Lab 3, batch 36): 1
Prediction in vivo inducer (CYP2B6 [4]; CYP2B6, HepaRG cells, listed as Phenytoin): Yes
Prediction in vivo inducer (CYP2B6 [4]; CYP2B6, HepaRG cells, listed as phenytoin): correctly classified
F2 (CYP2B6 [4]; CYP2B6, HepaRG cells, in vitro concentration producing 2-fold induction): 1.35 µM
Induction in vitro (CYP2B6 [4]; CYP2B6, HepaRG cells, positive in one batch in each of the three laboratories): Yes
Assigned classification CYP2B6 (CYP2B6 [4]; Lab 1, batch 20): 1
Assigned classification CYP2B6 (CYP2B6 [4]; Lab 1, batch 35): 1
Assigned classification CYP2B6 (CYP2B6 [4]; Lab 1, batch 36): 1
Assigned classification CYP2B6 (CYP2B6 [4]; Lab 2, batch 20): 1
Assigned classification CYP2B6 (CYP2B6 [4]; Lab 2, batch 35): 1
Assigned classification CYP2B6 (CYP2B6 [4]; Lab 2, batch 36): 1
Assigned classification CYP2B6 (CYP2B6 [4]; Lab 3, batch 20): 1
Assigned classification CYP2B6 (CYP2B6 [4]; Lab 3, batch 35): 1
Assigned classification CYP2B6 (CYP2B6 [4]; Lab 3, batch 36): 1
nephelometry finding in assay medium ([9]; 40 μg/ml, the two media): insoluble suspensions
HepaRG medium stability ([9]; ECVAM nephelometry, HepaRG medium, ^2 = solubility limit): 40 µg/mL
PHH medium stability ([9]; ECVAM nephelometry, PHH medium, ^2 = solubility limit): 20 µg/mL
HepaRG medium stability ([10]; Lab 1, visual observation): 40 µg/mL
HepaRG medium stability ([10]; Lab 2, visual observation): 20 µg/mL
HepaRG medium stability ([10]; Lab 3, visual observation): 40 µg/mL
PHH medium stability ([10]; Lab 4, visual observation): 40 µg/mL
PHH medium stability ([10]; Lab 5, visual observation): 20 µg/mL
PHH medium stability ([10]; Lab 6, visual observation): 10 µg/mL
F2 (CYP3A4 [11]; CYP3A4, PHH): 1.80 to 16.2 µM
Induction in vitro (CYP3A4 [11]; CYP3A4, PHH): Yes
Prediction in vivo inducer (CYP3A4 [11]; CYP3A4, PHH): Yes
Assigned classification CYP3A4 (CYP3A4 [11]; Lab 1, batch 0 6 A): 1
Assigned classification CYP3A4 (CYP3A4 [11]; Lab 1, batch 4 0 8): 0
Assigned classification CYP3A4 (CYP3A4 [11]; Lab 1, batch 8 0 8): 1
Assigned classification CYP3A4 (CYP3A4 [11]; Lab 2, batch 0 6 A): 1
Assigned classification CYP3A4 (CYP3A4 [11]; Lab 2, batch 4 0 8): 1
Assigned classification CYP3A4 (CYP3A4 [11]; Lab 2, batch 8 0 8): 1
Assigned classification CYP3A4 (CYP3A4 [11]; Lab 3, batch 0 6 A): 1
Assigned classification CYP3A4 (CYP3A4 [11]; Lab 3, batch 4 0 8): 1
Assigned classification CYP3A4 (CYP3A4 [11]; Lab 3, batch 8 0 8): 1
Prediction in vivo inducer (CYP1A2 [12]; CYP1A2, PHH, listed as Phenytoin): Yes
Prediction in vivo inducer (CYP1A2 [12]; CYP1A2, PHH, listed as phenytoin): correctly predicted CYP1A2 induction
F2 (CYP1A2 [12]; CYP1A2, PHH, in vitro concentration producing 2-fold induction): 16.2 to 48.6 µM
Induction in vitro (CYP1A2 [12]; CYP1A2, PHH, positive in one donor in each of the three laboratories): Yes
Assigned classification CYP1A2 (CYP1A2 [12]; Lab 1, batch 0 6 A): 1
Assigned classification CYP1A2 (CYP1A2 [12]; Lab 1, batch 4 0 8): 0
Assigned classification CYP1A2 (CYP1A2 [12]; Lab 1, batch 8 0 8): 0
Assigned classification CYP1A2 (CYP1A2 [12]; Lab 2, batch 0 6 A): 1
Assigned classification CYP1A2 (CYP1A2 [12]; Lab 2, batch 4 0 8): 0
Assigned classification CYP1A2 (CYP1A2 [12]; Lab 2, batch 8 0 8): 0
Assigned classification CYP1A2 (CYP1A2 [12]; Lab 3, batch 0 6 A): 1
Assigned classification CYP1A2 (CYP1A2 [12]; Lab 3, batch 4 0 8): 1
Assigned classification CYP1A2 (CYP1A2 [12]; Lab 3, batch 8 0 8): 0
SMILES: O=C1NC(=O)C(c2ccccc2)(c2ccccc2)N1 [Phenytoin sodium]
CYP induction in vitro (human hepatocytes) (CYP): CYP1A2, CYP2B6, CYP3A4
Induction in vivo (CYP1A2 [5]; CYP1A2, human, ref Table 1): Yes
CYP induction in vivo literature reference: CYP1A2 (CYP1A2 [5]; [13]): CYP1A2
Cmax ([6]; human in vivo plasma concentration, normal dose): 40 to 80 µM
Cmax ([6]; human in vivo, normal dose (Table 10)): 40 to 80 µM
Induction in vivo (CYP2B6 [7]; CYP2B6, human in vivo reference classification): Yes
Induction in vivo (CYP2B6 [7]; CYP2B6, human, ref Table 1): Yes
CYP induction in vivo literature reference: CYP2B6 (CYP2B6 [7]; [13]): CYP2B6
Induction in vivo (CYP3A4 [8]; CYP3A4, human in vivo reference classification (Table 11)): Yes
CYP induction in vivo literature reference: CYP3A4 (CYP3A4 [8]; [13]): CYP3A4
